Where a name gives a salt, the structure may show the parent alone.
Tests used:
[1] = tested on: human spermatozoa; assay: progressively motile sperm, percent change vs DMSO (non-capacitating); higher = more of the measured sperm population than DMSO, for viability, fewer PI-positive (dead) cells than DMSO; extreme values may be limits of the assay
[2] = tested on: HepG2; assay: HepG2 toxicity (resazurin), effect normalised to DMSO (DMSO = 0); higher = more features changed / larger toxic effect; settings: incubation time: 70h incubation
[3] = tested on: human spermatozoa; assay: acrosome-reacted (PNA+) sperm after agonist cocktail, percent change vs DMSO (capacitating); higher = more of the measured sperm population than DMSO, for viability, fewer PI-positive (dead) cells than DMSO; settings: incubation time: 3h, capacitating + agonist cocktail 1h
[4] = tested on: HeLa; assay: HeLa toxicity: nuclei-count effect normalised to DMSO (DMSO = 0); higher = more features changed / larger toxic effect; settings: incubation time: 24h incubation
[5] = tested on: human spermatozoa; assay: total motile sperm, percent change vs DMSO (non-capacitating); higher = more of the measured sperm population than DMSO, for viability, fewer PI-positive (dead) cells than DMSO
[6] = tested on: human spermatozoa; assay: progressively motile sperm, percent change vs DMSO (capacitating); higher = more of the measured sperm population than DMSO, for viability, fewer PI-positive (dead) cells than DMSO; settings: incubation time: 30min incubation
[7] = tested on: human spermatozoa; assay: viability fold change, 1 - (PI-positive fraction / DMSO median); higher = more of the measured sperm population than DMSO, for viability, fewer PI-positive (dead) cells than DMSO; settings: incubation time: 3h, non-capacitating
[8] = tested on: human spermatozoa; assay: hyperactivated motile sperm, percent change vs DMSO (capacitating); higher = more of the measured sperm population than DMSO, for viability, fewer PI-positive (dead) cells than DMSO; settings: incubation time: 30min incubation
[9] = tested on: HeLa; assay: Cell Painting percent induction (share of features beyond 2 z-scores vs DMSO); higher = more features changed / larger toxic effect; extreme values may be limits of the assay; settings: incubation time: 24h incubation
[10] = tested on: human spermatozoa; assay: change in acrosome-reacted (PNA+) sperm vs DMSO, no agonist (capacitating); higher = more of the measured sperm population than DMSO, for viability, fewer PI-positive (dead) cells than DMSO; settings: incubation time: 3h
[11] = incubation time: 10min incubation, 9.99 µM
[12] = incubation time: 10min incubation, 29.9 µM
[13] = incubation time: 3h incubation, 9.99 µM
[14] = incubation time: 3h incubation, 29.9 µM
[15] = incubation time: 6h incubation, 9.99 µM
[16] = incubation time: 6h incubation, 29.9 µM
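Throughout, for progressively motile sperm, percent change vs DMSO (non-capacitating): pooled live human sperm from at least 3 donors, tracked by automated microscopy in 0.5 s time-lapse movies, compounds at 10 and 30 µM, versus median of 16 DMSO wells per plate.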
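Throughout, for total motile sperm, percent change vs DMSO (non-capacitating): sperm pooled from at least 3 donors, tracked in 0.5 s time-lapse movies by automated microscopy after 10 min, 3 h or 6 h with compound at 10 or 30 µM.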

Structure (SMILES)	progressively motile sperm [1, 11]	progressively motile sperm [1, 12]	progressively motile sperm [1, 13]	progressively motile sperm [1, 14]	progressively motile sperm [1, 15]	progressively motile sperm [1, 16]	HepG2 toxicity ([2]; 10 µM)	HepG2 toxicity ([2]; 30 µM)	acrosome-reacted ([3]; 9.99 µM)	acrosome-reacted ([3]; 29.9 µM)	HeLa toxicity: nuclei-count effect normalised ([4]; 9.99 µM)	HeLa toxicity: nuclei-count effect normalised ([4]; 29.9 µM)	total motile sperm [5, 11]	total motile sperm [5, 12]	total motile sperm [5, 13]	total motile sperm [5, 14]	total motile sperm [5, 15]	total motile sperm [5, 16]	progressively motile sperm ([6]; 9.99 µM)	progressively motile sperm ([6]; 29.9 µM)	viability fold change ([7]; 9.99 µM)	viability fold change ([7]; 29.9 µM)	hyperactivated motile sperm ([8]; 9.99 µM)	hyperactivated motile sperm ([8]; 29.9 µM)	Cell Painting percent induction ([9]; 9.99 µM)	Cell Painting percent induction ([9]; 29.9 µM)	change in acrosome-reacted ([10]; 9.99 µM)	change in acrosome-reacted ([10]; 29.9 µM)
COc1cc(C(=O)N2CCC(N3CCN(C)CC3)CC2)ccc1Nc1ncc2c(n1)N(C)c1ccccc1C(=O)N2C [LRRK2-IN-1]	31.1%	27.8%	57.2%	50.6%	62.8%	43.3%	7.52%	56.2%	58.9%	103%	44.2%	53.9%	-2.77%	-1.16%	-9.9%	-13%	-11.9%	-17.6%	7.96%	4.98%	-0.856	-0.909	224%	215%	5.8%	10.2%	1.4%	1.43%
CC(C)c1ccc2c(c1)CC[C@H]1[C@](C)(CN)CCC[C@]21C [Leelamine hydrochloride]	15.1%	-12.8%	51.8%	-74.2%	59.5%	-84.3%	102%	103%	41.7%	60.2%	88.2%	98.4%	-0.495%	-12.1%	1.52%	-51.7%	-1.74%	-63.5%	4.41%	-53.6%	-1.89	-2.79	-31%	-87.5%	25.1%	36.4%	5.38%	14.4%
C[C@]1(O)C[C@@H](c2nc(-c3ccc4ccc(-c5ccccc5)nc4c3)c3c(N)nccn32)C1 [Linsitinib]	43.2%	45.9%	71.3%	65.1%	93.9%	79.2%	-2.88%	27.2%	115%	113%	2.74%	25%	2.7%	5.16%	-8.39%	-6.08%	-8.05%	-11.2%	10.2%	14.7%	-1.24	-1.48	219%	114%	1.62%	0.144%	1.26%	1.92%
CCCCCCCCCCCCCCCCOCC(COCC(F)(F)F)OP(=O)([O-])OC (centres undefined) [MJ33]	3.5%	11.9%	-6.92%	-2.7%	-4.8%	-4.44%	-0.425%	2.58%	6.57%	19.6%	6.41%	1%	2.25%	4.52%	-13.2%	0.791%	-9.12%	-4.03%	10.8%	15.1%	-0.678	-0.975	21.6%	9.77%	0%	0.036%	0.541%	1%
COCC(=O)O[C@]1(CCN(C)CCCc2nc3ccccc3[nH]2)CCc2cc(F)ccc2[C@@H]1C(C)C [Mibefradil]	1.95%	0.528%	16.4%	25.7%	27.4%	23.4%	14%	103%	18.3%	38.1%	35.6%	97.9%	-1.6%	0.488%	-3.96%	-8.13%	-7.2%	-14.3%	3.94%	6.24%	-1.48	-2.28	-13.7%	-48.1%	5.66%	43.7%	0.323%	1.49%
CCCCN1C[C@@H](O)[C@H](O)[C@H](O)[C@@H]1CO [Miglustat]	-0.816%	3.26%	9.63%	8.04%	8.15%	7.52%	5.75%	-4.38%	-0.571%	-6.96%	0.0668%	-3.87%	-1.47%	0.804%	-1.56%	-0.192%	-5.48%	-3.6%	5.12%	9.04%	-0.2	0.248	12.2%	2.46%	0%	0%	-0.0821%	-0.0793%
CC(C)[C@H]1c2ccc(F)cc2CC[C@@]1(CCN(C)CCCc1nc2ccccc2[nH]1)OC(=O)C1CC1 [NNC 55-0396 dihydrochloride]	5.26%	-62.2%	16.3%	-100%	7.86%	-100%	102%	103%	52.4%	51.1%	97.3%	95.5%	0.104%	-33.4%	-15%	-93.6%	-24.8%	-93%	4.2%	-98.6%	-1.31	-2.3	-62%	-82.2%	27.1%	14.2%	4.14%	29.2%
Nc1ncnc2c1c(-c1cccc(OCc3ccccc3)c1)cn2[C@H]1C[C@@H](CN2CCC2)C1 [NVP-AEW541]	6.28%	11.5%	31.9%	34.1%	48.5%	31.5%	82.9%	103%	10.6%	31.6%	27.7%	99.5%	-0.708%	-2.42%	2.29%	-8.07%	-0.444%	-10.1%	1.09%	5.49%	-0.326	-0.581	16.7%	-13.9%	8.93%	57.6%	0.03%	0.662%
